The results in this text go back to ChEMBL document CHEMBL1212939, “Structure and relative potency of several karlotoxins from Karlodinium veneficum” (J Nat Prod, 2010).

The data set can be described thus: Toxicity in human erythrocytes assessed as hemolytic activity after 24 hrs. It is filed as cell-based, Erythrocyte.

`C=C/C=C/CCCCCCCCCC/C=C/C(O)C(O)C1OC(C(O)C(O)C(=C)CCC(O)C2OC(CC(O)C(O)C(C)CCCC(O)C(O)C(O)C(C)CCC(O)C(O)C(C)CC(O)CCCC(O)CCCC(O)/C=C/CC(O)CO)C(O)C(O)C2O)CC(O)C1O` (stereo not given): the EC50 (commonly the concentration that produces a half-maximal response) at 24 h came to 63 nM.

Regarding `C=C(CCC(O)C1OC(CC(O)C(O)C(C)CCCC(O)C(O)C(O)C(C)CCC(O)C(O)C(C)CC(O)CCCC(O)CCCC(O)/C=C/CC(O)CO)C(O)C(O)C1O)C(O)C(O)C1CC(O)C(O)C(C(O)C(O)/C=C/CCCCCCCCCC/C=C/C=C/Cl)O1` (stereo not given), the concentration for a half-maximal effect (EC50) at 24 h is 56 nM.

As for `C=C(CCC(O)C1OC(CC(O)C(O)C(C)CCCC(O)C(O)C(O)C(C)CCC(O)C(O)C(C)CC(O)CCCC(O)CCCC(O)/C=C/CC(O)CO)C(O)C(O)C1O)C(O)C(O)C1CC(O)C(O)C(C(O)C(O)/C=C/CCCCCCCCC/C=C/C=C/Cl)O1` (stereo not given), the EC50 at 24 h is 110 nM.

For the molecule `C=C/C=C/CCCCCCCCC/C=C/C(O)C(O)C1OC(C(O)C(O)C(=C)CCC(O)C2OC(CC(O)C(O)C(C)CCCC(O)C(O)C(O)C(C)CCC(O)C(O)C(C)CC(O)CCCC(O)CCCC(O)/C=C/CC(O)CO)C(O)C(O)C2O)CC(O)C1O` (stereo not given), the EC50 at 24 h is 200 nM.

With `C=C/C=C/CCCCCCCCCC/C=C/C(O)C(O)C1OC(C(O)C(O)C(=C)CCC(O)C2OC(CC(O)C(O)C(C)CCCC(O)C(O)C(O)C(C)CCC(O)C(O)C(C)CC(O)CCCC(CCCC(O)/C=C/CC(O)CO)OS(=O)(=O)O)C(O)C(O)C2O)CC(O)C1O` (stereo not given), the EC50 at 24 h was determined as 300 nM.
